Measured values as given in ChEMBL document CHEMBL1201861, “Genomics of Drug Sensitity in Cancer screening data, Wellcome Trust Sanger Institute”.

How the values were obtained:
[1] = tested on: NCI-H719; assay: cells; format: functional, cell-based, Homo sapiens; conditions: nci-h719;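 further: growth inhibition of the cultured cell line, read out with a viability assay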
Description: SANGER: Inhibition of human NCI-H719 cell growth in a cell viability assay.

[2] = tested on: NCI-H82; assay: cells; format: functional, cell-based, Homo sapiens; conditions: nci-h82;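 further: growth inhibition of NCI-H82 cells, measured with a cell viability readout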
Description: SANGER: Inhibition of human NCI-H82 cell growth in a cell viability assay.

[3] = tested on: HD-MY-Z; assay: cells; format: functional, cell-based, Homo sapiens; conditions: hd-my-z;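 further: growth inhibition of HD-MY-Z cells, read out with a cell viability assay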
Description: SANGER: Inhibition of human HD-MY-Z cell growth in a cell viability assay.

[4] = tested on: 5637; assay: cells; format: functional, cell-based, Homo sapiens
Description: SANGER: Inhibition of human 5637 cell growth in a cell viability assay.

[5] = tested on: LB647-SCLC; assay: cells; format: functional, cell-based, Homo sapiens; conditions: lb647-sclc;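 further: cell growth inhibition, read out by a viability assay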
Description: SANGER: Inhibition of human LB647-SCLC cell growth in a cell viability assay.

[6] = tested on: AGS; assay: cells; format: functional, cell-based, Homo sapiens; conditions: ags;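 further: growth inhibition of AGS cells, determined with a cell viability assay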
Description: SANGER: Inhibition of human AGS cell growth in a cell viability assay.

[7] = tested on: NOS-1; assay: cells; format: functional, cell-based, Homo sapiens; conditions: nos-1;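 further: growth inhibition of the human NOS-1 cell line, read out with a cell viability assay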
Description: SANGER: Inhibition of human NOS-1 cell growth in a cell viability assay.

[8] = tested on: BHY; assay: cells; format: functional, cell-based, Homo sapiens; conditions: bhy;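 further: cell growth inhibition read out by a viability assay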
Description: SANGER: Inhibition of human BHY cell growth in a cell viability assay.

[9] = tested on: CAPAN-1; assay: cells; format: functional, cell-based, Homo sapiens; conditions: capan-1;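 further: growth suppression of CAPAN-1 cells, read out by a cell viability assay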
Description: SANGER: Inhibition of human CAPAN-1 cell growth in a cell viability assay.

[10] = tested on: COR-L105; assay: cells; format: functional, cell-based, Homo sapiens; conditions: cor-l105
Description: SANGER: Inhibition of human COR-L105 cell growth in a cell viability assay.

[11] = tested on: NCI-H1355; assay: cells; format: functional, cell-based, Homo sapiens; conditions: nci-h1355;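 further: growth inhibition of human NCI-H1355 cells, read out by a cell viability assay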
Description: SANGER: Inhibition of human NCI-H1355 cell growth in a cell viability assay.

[12] = tested on: S-117; assay: cells; format: functional, cell-based, Homo sapiens; conditions: s-117
Description: SANGER: Inhibition of human S-117 cell growth in a cell viability assay.

[13] = tested on: BEN; assay: cells; format: functional, cell-based, Homo sapiens; conditions: ben;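 further: growth inhibition of the BEN cell line, read out with a cell viability assay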
Description: SANGER: Inhibition of human BEN cell growth in a cell viability assay.

[14] = tested on: EB-3; assay: cells; format: functional, cell-based, Homo sapiens; conditions: eb-3;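 further: human EB-3 cells, growth inhibition read out via a cell viability assay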
Description: SANGER: Inhibition of human EB-3 cell growth in a cell viability assay.

[15] = tested on: Ca9-22; assay: cells; format: functional, cell-based, Homo sapiens; conditions: ca9-22;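 further: growth inhibition of Ca9-22 cells, read out with a cell viability assay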
Description: SANGER: Inhibition of human Ca9-22 cell growth in a cell viability assay.

[16] = tested on: Panc1005; assay: cells; format: functional, cell-based, Homo sapiens; conditions: panc1005;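 further: growth inhibition of human PANC-10-05 cells, measured by a cell viability assay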
Description: SANGER: Inhibition of human PANC-10-05 cell growth in a cell viability assay.

[17] = tested on: KP-4; assay: cells; format: functional, cell-based, Homo sapiens; conditions: kp-4;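 further: human KP-4 cells, with growth inhibition read out through a cell viability assay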
Description: SANGER: Inhibition of human KP-4 cell growth in a cell viability assay.

[18] = tested on: NCI-H1770; assay: cells; format: functional, cell-based, Homo sapiens; conditions: nci-h1770;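 further: growth inhibition of NCI-H1770 cells determined with a viability readout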
Description: SANGER: Inhibition of human NCI-H1770 cell growth in a cell viability assay.

[19] = tested on: NCI-H1623; assay: cells; format: functional, cell-based, Homo sapiens; conditions: nci-h1623;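 further: cell viability assay used as the read-out for growth inhibition of NCI-H1623 cells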
Description: SANGER: Inhibition of human NCI-H1623 cell growth in a cell viability assay.

[20] = tested on: NCI-H1437; assay: cells; format: functional, cell-based, Homo sapiens; conditions: nci-h1437;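 further: growth inhibition of human NCI-H1437 cells, read out by a cell viability assay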
Description: SANGER: Inhibition of human NCI-H1437 cell growth in a cell viability assay.

[21] = tested on: A-375; assay: cells; format: functional, cell-based, Homo sapiens; conditions: a-375;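 further: growth inhibition of A375 cells, read out with a cell viability assay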
Description: SANGER: Inhibition of human A375 cell growth in a cell viability assay.

[22] = tested on: WM-115; assay: cells; format: functional, cell-based, Homo sapiens; conditions: wm-115
Description: SANGER: Inhibition of human WM-115 cell growth in a cell viability assay.

[23] = tested on: LAN-6; assay: cells; format: functional, cell-based, Homo sapiens; conditions: lan-6;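 further: growth inhibition of LAN-6 cells, determined with a cell viability assay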
Description: SANGER: Inhibition of human LAN-6 cell growth in a cell viability assay.

[24] = tested on: EVSA-T; assay: cells; format: functional, cell-based, Homo sapiens; conditions: evsa-t;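 further: growth inhibition of EVSA-T cells, read out with a cell viability assay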
Description: SANGER: Inhibition of human EVSA-T cell growth in a cell viability assay.

[25] = tested on: MKN-7; assay: cells; format: functional, cell-based, Homo sapiens; conditions: mkn-7;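 further: growth inhibition of MKN-7 cells, read out with a cell viability assay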
Description: SANGER: Inhibition of human MKN7 cell growth in a cell viability assay.

[26] = tested on: ChaGo-K-1; assay: cells; format: functional, cell-based, Homo sapiens; conditions: chago-k-1;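 further: growth inhibition of ChaGo-K-1 cells, read out with a cell viability assay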
Description: SANGER: Inhibition of human ChaGo-K-1 cell growth in a cell viability assay.

[27] = tested on: U-118-MG; assay: cells; format: functional, cell-based, Homo sapiens; conditions: u-118-mg
Description: SANGER: Inhibition of human U-118-MG cell growth in a cell viability assay.

[28] = tested on: LB1047-RCC; assay: cells; format: functional, cell-based, Homo sapiens; conditions: lb1047-rcc
Description: SANGER: Inhibition of human LB1047-RCC cell growth in a cell viability assay.

[29] = tested on: NCI-H1650; assay: cells; format: functional, cell-based, Homo sapiens; conditions: nci-h1650;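 further: growth inhibition of human NCI-H1650 cells measured by a cell viability assay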
Description: SANGER: Inhibition of human NCI-H1650 cell growth in a cell viability assay.

[30] = tested on: SCC-9; assay: cells; format: functional, cell-based, Homo sapiens; conditions: scc-9;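 further: Read-out is a cell viability assay, with values giving inhibition of cell growth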
Description: SANGER: Inhibition of human SCC-9 cell growth in a cell viability assay.

[31] = tested on: BL-70; assay: SANGER: Inhibition of human BL-70 cell growth in a cell viability assay.; format: functional, cell-based; conditions: bl-70
[32] = tested on: A101D; assay: cells; format: functional, cell-based, Homo sapiens; conditions: a101d;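 further: growth inhibition of the cell line, measured with a viability assay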
Description: SANGER: Inhibition of human A101D cell growth in a cell viability assay.

[33] = tested on: GP5d; assay: cells; format: functional, cell-based, Homo sapiens; conditions: gp5d;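 further: growth inhibition of human GP5d cells, read out with a cell viability assay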
Description: SANGER: Inhibition of human GP5d cell growth in a cell viability assay.

[34] = tested on: NCI-H2141; assay: cells; format: functional, cell-based, Homo sapiens; conditions: nci-h2141;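 further: growth inhibition of human NCI-H2141 cells, read out with a cell viability assay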
Description: SANGER: Inhibition of human NCI-H2141 cell growth in a cell viability assay.

[35] = tested on: KURAMOCHI; assay: cells; format: functional, cell-based, Homo sapiens; conditions: kuramochi;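 further: growth inhibition of KURAMOCHI cells, read out with a cell viability assay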
Description: SANGER: Inhibition of human KURAMOCHI cell growth in a cell viability assay.

[36] = tested on: RS4-11; assay: cells; format: functional, cell-based, Homo sapiens; conditions: rs4-11;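 further: growth inhibition of RS4-11 cells, read out by a cell viability assay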
Description: SANGER: Inhibition of human RS4-11 cell growth in a cell viability assay.

[37] = tested on: GI-ME-N; assay: cells; format: functional, cell-based, Homo sapiens; conditions: gi-me-n;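 further: growth inhibition of human GI-ME-N cells, read out with a cell viability assay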
Description: SANGER: Inhibition of human GI-ME-N cell growth in a cell viability assay.

[38] = tested on: NCI-H1573; assay: cells; format: functional, cell-based, Homo sapiens; conditions: nci-h1573;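 further: growth inhibition of NCI-H1573 cells, read out with a cell viability assay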
Description: SANGER: Inhibition of human NCI-H1573 cell growth in a cell viability assay.

[39] = tested on: BB49-HNC; assay: cells; format: functional, cell-based, Homo sapiens; conditions: bb49-hnc;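 further: cell viability assay read-out, reported as inhibition of BB49-HNC cell growth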
Description: SANGER: Inhibition of human BB49-HNC cell growth in a cell viability assay.

[40] = tested on: NY; assay: cells; format: functional, cell-based, Homo sapiens; conditions: ny
Description: SANGER: Inhibition of human NY cell growth in a cell viability assay.

[41] = tested on: DU-4475; assay: cells; format: functional, cell-based, Homo sapiens; conditions: du-4475
Description: SANGER: Inhibition of human DU-4475 cell growth in a cell viability assay.

[42] = tested on: LN-405; assay: cells; format: functional, cell-based, Homo sapiens; conditions: ln-405
Description: SANGER: Inhibition of human LN-405 cell growth in a cell viability assay.

[43] = tested on: NCI-H1155; assay: cells; format: functional, cell-based, Homo sapiens; conditions: nci-h1155
Description: SANGER: Inhibition of human NCI-H1155 cell growth in a cell viability assay.

[44] = tested on: EGI-1; assay: cells; format: functional, cell-based, Homo sapiens; conditions: egi-1;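 further: cell viability readout used to gauge growth inhibition of EGI-1 cells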
Description: SANGER: Inhibition of human EGI-1 cell growth in a cell viability assay.

[45] = tested on: NCI-H69; assay: cells; format: functional, cell-based, Homo sapiens; conditions: nci-h69;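 further: growth inhibition of the cell line, read out with a cell viability assay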
Description: SANGER: Inhibition of human NCI-H69 cell growth in a cell viability assay.

[46] = tested on: WSU-NHL; assay: cells; format: functional, cell-based, Homo sapiens; conditions: wsu-nhl;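 further: growth inhibition of human WSU-NHL cells, read out with a cell viability assay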
Description: SANGER: Inhibition of human WSU-NHL cell growth in a cell viability assay.

[47] = tested on: COLO-741; assay: cells; format: functional, cell-based, Homo sapiens; conditions: colo-741
Description: SANGER: Inhibition of human COLO-741 cell growth in a cell viability assay.

[48] = tested on: NCI-H522; assay: cells; format: functional, cell-based, Homo sapiens; conditions: nci-h522;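 further: cell viability assay measuring growth inhibition of human NCI-H522 cells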
Description: SANGER: Inhibition of human NCI-H522 cell growth in a cell viability assay.

Sequence: BLEOMYCIN
- IC50 [1]: 293 µM
- IC50 [2]: 225 µM
- IC50 [3]: 0.56 µM
- IC50 [4]: 0.029 µM
- IC50 [5]: 3.14 µM
- IC50 [6]: 0.503 µM
- IC50 [7]: 1.31 µM
- IC50 [8]: 1.83 µM
- IC50 [9]: 2.92 µM
- IC50 [10]: 7.37 µM
- IC50 [11]: 8.2 µM
- IC50 [12]: 90.2 µM
- IC50 [13]: 46 µM
- IC50 [14]: 21.8 µM
- IC50 [15]: 0.746 µM
- IC50 [16]: 0.256 µM
- IC50 [17]: 2.17 µM
- IC50 [18]: 5.29 µM
- IC50 [19]: 39 µM
- IC50 [20]: 0.743 µM
- IC50 [21]: 0.0711 µM
- IC50 [22]: 7.09 µM
- IC50 [23]: 14.6 µM
- IC50 [24]: 861 µM
- IC50 [25]: 66.5 µM
- IC50 [26]: 16.4 µM
- IC50 [27]: 65.7 µM
- IC50 [28]: 0.0325 µM
- IC50 [29]: 0.499 µM
- IC50 [30]: 403 µM
- IC50 [31]: 1650 µM
- IC50 [32]: 0.62 µM
- IC50 [33]: 15.6 µM
- IC50 [34]: 36.1 µM
- IC50 [35]: 2.04 µM
- IC50 [36]: 0.00164 µM
- IC50 [37]: 0.441 µM
- IC50 [38]: 268 µM
- IC50 [39]: 38.8 µM
- IC50 [40]: 5.91 µM
- IC50 [41]: 1.27 µM
- IC50 [42]: 402 µM
- IC50 [43]: 73.2 µM
- IC50 [44]: 0.772 µM
- IC50 [45]: 104 µM
- IC50 [46]: 31.6 µM
- IC50 [47]: 16.4 µM
- IC50 [48]: 0.426 µM
